Columns and labels:
[1] = system: feline infectious peritonitis (FIP); experiment: Clinical survival of cats with clinically confirmed FIP, treatment group vs control group (Example 2); type: in vivo, cat; conditions: 14 days; 2.0 mg/kg SC q24h D1-D14 plus supportive treatment, 7 cats vs 8 control cats; both pre-treated with GS-441524 for 3 days; Log Rank and Breslow tests, P < 0.05
Excerpt: A total of 15 cats with clinically confirmed FIP were enrolled, with hydrothorax/ascites, positive CT value by PCR, and no neurological symptoms. 8 cats were allocated into the control group, and 7 cats were allocated into the treatment group.
The groups were pre-treated with GS-441524 for 3 days. For the control group, necessary supportive treatment was given on D1-D14. For the treatment group, after 3 days of observation, necessary supportive treatment and the drug of the present invention (2.0 mg/kg, SC, q24 h) were given on D1-D14.
The occurrence of death or neurological symptoms was judged as clinical death, and the clinical survival curve was plotted after 14 days.

[2] = system: feline infectious peritonitis (FIP), feline coronavirus positive; experiment: Treatment of a cat with recurrent feline infectious peritonitis (Example 1): daily clinical observation, body weight, chest X-ray; type: in vivo; conditions: for Food intake: D0: Decreased intake - 3; for Mental state: D0: Listless - 3; for Defecation condition / Respiratory state: D0: Normal - 5; for Body temperature Afternoon: D0 value 38.5; for body weight: 2.5 kg at enrollment (D0)
Method: Lele, a British shorthair cat, 8 months old, female, unneutered, weighing 2.5 kg. The cat had symptoms of elevated body temperature, mental depression, anorexia, and enlarged abdominal circumference in January, 2020. One week later, the cat was admitted. On January 18, the cat was diagnosed with feline infectious peritonitis (FIP) positive. After being treated with GS-441524 for 3 days, the cat was then given furosemide, Synulox®, prednisolone and itraconazole (P.O., q24h, 10 mg/kg) for 1 month. The drugs were discontinued after ascites regressed. […] The cat was enrolled on April 8, and was treated with the drug of the present invention at 2.0 mg/kg (SC, q24h) on days 1-14 (D1-14). Proper supportive treatments were given at the same time, including adjuvant treatment such as Moringa (a hepatoprotective drug), Lysinphirst (lysine) and Doctor Dolittle® (lactoferrin).
The pharmaceutically active compound described above is a pure powder have the following structure. The compound was added to a 0.9% normal saline (50 mL of endotoxin-free water and 0.45 g of NaCl), and the resulting mixture was uniformly mixed and filtered through a filter membrane to give a clarified solution. The diluted compound was stored in a plastic-sealed sterile vial, stored in a refrigerator at 4° C., gently brought to room temperature before injection, and administered using a disposable syringe. The injection ranged across the back, starting from 2 cm posterior to the scapula to the middle of the lumbar spine, half of the distance of the adjacent chest to flank.
The treatment was given by injection in the morning every day, body temperature, appetite, mental state and respiratory state were measured and evaluated at 15:00 pm, and urination and defecation conditions were recorded.
The body weight increased by 9% during and after the treatment.

For CN1CCC(c2ncc(-c3cnc(N)c(OCc4cccc(C#CC(C)(C)O)c4)c3)s2)CC1 [the drug of the present invention, 4-(3-{2-amino-5-[2-(1-methyl-piperidin-4-yl)thiazol-5-yl]pyridin-3-yloxymethyl}phenyl)-2-methyl-but-3-yn-2-ol], the “clinical survival curve (death or neurological symptoms = clinical death), treatment group vs control group” value [1] was “significant difference”, the Food intake ([2]; D1 (4-9), 2.0 mg/kg SC q24h) was “Decreased intake - 3” and the Mental state ([2]; D1 (4-9), 2.0 mg/kg SC q24h) was “Slightly improved - 3.5”. The Defecation condition ([2]; D1 (4-9), 2.0 mg/kg SC q24h) was “Normal”, the Respiratory state ([2]; D1 (4-9), 2.0 mg/kg SC q24h) was “Normal” and the Body temperature Afternoon ([2]; D1 (4-9), 2.0 mg/kg SC q24h) was 38.6 °C. For the same molecule, the Food intake ([2]; D2 (4-10), 2.0 mg/kg SC q24h) was “Improved - 4”, the Mental state ([2]; D2 (4-10), 2.0 mg/kg SC q24h) was “Improved - 4” and the Defecation condition ([2]; D2 (4-10), 2.0 mg/kg SC q24h) was “Normal”. For the same molecule, the Respiratory state ([2]; D2 (4-10), 2.0 mg/kg SC q24h) was “Normal”, the Body temperature Afternoon ([2]; D2 (4-10), 2.0 mg/kg SC q24h) was 38.1 °C and the Food intake ([2]; D3 (4-11), 2.0 mg/kg SC q24h) was “Good - 5”. For the same molecule, the Mental state ([2]; D3 (4-11), 2.0 mg/kg SC q24h) was “Good - 5”, the Defecation condition ([2]; D3 (4-11), 2.0 mg/kg SC q24h) was “Normal” and the Respiratory state ([2]; D3 (4-11), 2.0 mg/kg SC q24h) was “Normal”. For the same molecule, the Body temperature Afternoon ([2]; D3 (4-11), 2.0 mg/kg SC q24h) was 38 °C, the Food intake ([2]; D4 (4-12), 2.0 mg/kg SC q24h) was “Good” and the Mental state ([2]; D4 (4-12), 2.0 mg/kg SC q24h) was “Good”. For the same molecule, the Defecation condition ([2]; D4 (4-12), 2.0 mg/kg SC q24h) was “Normal”, the Respiratory state ([2]; D4 (4-12), 2.0 mg/kg SC q24h) was “Normal” and the Body temperature Afternoon ([2]; D4 (4-12), 2.0 mg/kg SC q24h) was 38.3 °C. The Food intake ([2]; D5 (4-13), 2.0 mg/kg SC q24h) was “Good”, the Mental state ([2]; D5 (4-13), 2.0 mg/kg SC q24h) was “Good” and the Defecation condition ([2]; D5 (4-13), 2.0 mg/kg SC q24h) was “Normal”. The Respiratory state ([2]; D5 (4-13), 2.0 mg/kg SC q24h) was “Normal”, the Body temperature Afternoon ([2]; D5 (4-13), 2.0 mg/kg SC q24h) was 38.3 °C and the Food intake ([2]; D6 (4-14), 2.0 mg/kg SC q24h) was “Good”. The Mental state ([2]; D6 (4-14), 2.0 mg/kg SC q24h) was “Good”, the Defecation condition ([2]; D6 (4-14), 2.0 mg/kg SC q24h) was “Normal” and the Respiratory state ([2]; D6 (4-14), 2.0 mg/kg SC q24h) was “Normal”. The Body temperature Afternoon ([2]; D6 (4-14), 2.0 mg/kg SC q24h) was 38.3 °C, the body weight ([2]; D7 (4-15), 2.0 mg/kg SC q24h) was 2.75 kg body weight and the Food intake ([2]; D7 (4-15), 2.0 mg/kg SC q24h) was “Good”. For the same molecule, the Mental state ([2]; D7 (4-15), 2.0 mg/kg SC q24h) was “Good”, the Defecation condition ([2]; D7 (4-15), 2.0 mg/kg SC q24h) was “Normal” and the Respiratory state ([2]; D7 (4-15), 2.0 mg/kg SC q24h) was “Normal”. For the same molecule, the Body temperature Afternoon ([2]; D7 (4-15), 2.0 mg/kg SC q24h) was 38.1 °C, the Food intake ([2]; D8 (4-16), 2.0 mg/kg SC q24h) was “Good” and the Mental state ([2]; D8 (4-16), 2.0 mg/kg SC q24h) was “Good”. The Defecation condition ([2]; D8 (4-16), 2.0 mg/kg SC q24h) was “Normal”, the Respiratory state ([2]; D8 (4-16), 2.0 mg/kg SC q24h) was “Normal” and the Body temperature Afternoon ([2]; D8 (4-16), 2.0 mg/kg SC q24h) was 38 °C. The Food intake ([2]; D9 (4-17), 2.0 mg/kg SC q24h) was “Good”, the Mental state ([2]; D9 (4-17), 2.0 mg/kg SC q24h) was “Good” and the Defecation condition ([2]; D9 (4-17), 2.0 mg/kg SC q24h) was “Normal”. For the same molecule, the Respiratory state ([2]; D9 (4-17), 2.0 mg/kg SC q24h) was “Normal”, the Body temperature Afternoon ([2]; D9 (4-17), 2.0 mg/kg SC q24h) was 38.2 °C and the Food intake ([2]; D10 (4-18), 2.0 mg/kg SC q24h) was “Good”. For the same molecule, the Mental state ([2]; D10 (4-18), 2.0 mg/kg SC q24h) was “Good”, the Defecation condition ([2]; D10 (4-18), 2.0 mg/kg SC q24h) was “Normal” and the Respiratory state ([2]; D10 (4-18), 2.0 mg/kg SC q24h) was “Normal”. For the same molecule, the Body temperature Afternoon ([2]; D10 (4-18), 2.0 mg/kg SC q24h) was 38.3 °C, the Food intake ([2]; D11 (4-19), 2.0 mg/kg SC q24h) was “Good” and the Mental state ([2]; D11 (4-19), 2.0 mg/kg SC q24h) was “Good”. For the same molecule, the Defecation condition ([2]; D11 (4-19), 2.0 mg/kg SC q24h) was “Normal”, the Respiratory state ([2]; D11 (4-19), 2.0 mg/kg SC q24h) was “Normal” and the Body temperature Afternoon ([2]; D11 (4-19), 2.0 mg/kg SC q24h) was 38.4 °C. For the same molecule, the Food intake ([2]; D12 (4-20), 2.0 mg/kg SC q24h) was “Good”, the Mental state ([2]; D12 (4-20), 2.0 mg/kg SC q24h) was “Good” and the Defecation condition ([2]; D12 (4-20), 2.0 mg/kg SC q24h) was “Normal”. The Respiratory state ([2]; D12 (4-20), 2.0 mg/kg SC q24h) was “Normal”, the Body temperature Afternoon ([2]; D12 (4-20), 2.0 mg/kg SC q24h) was 38.5 °C and the Body temperature Morning ([2]; D13 (4-21), 2.0 mg/kg SC q24h) was 38.9 °C. For the same molecule, the Food intake ([2]; D13 (4-21), 2.0 mg/kg SC q24h) was “Good”, the Mental state ([2]; D13 (4-21), 2.0 mg/kg SC q24h) was “Good” and the Defecation condition ([2]; D13 (4-21), 2.0 mg/kg SC q24h) was “Normal”. For the same molecule, the Respiratory state ([2]; D13 (4-21), 2.0 mg/kg SC q24h) was “Normal”, the Body temperature Afternoon ([2]; D13 (4-21), 2.0 mg/kg SC q24h) was 38.5 °C and the Body temperature Morning ([2]; D14 (4-22), 2.0 mg/kg SC q24h) was 38.4 °C. For the same molecule, the body weight ([2]; D14 (4-22), 2.0 mg/kg SC q24h) was 2.75 kg body weight, the Food intake ([2]; D14 (4-22), 2.0 mg/kg SC q24h) was “Good” and the Mental state ([2]; D14 (4-22), 2.0 mg/kg SC q24h) was “Good”. For the same molecule, the Defecation condition ([2]; D14 (4-22), 2.0 mg/kg SC q24h) was “Normal”, the Respiratory state ([2]; D14 (4-22), 2.0 mg/kg SC q24h) was “Normal” and the Body temperature Afternoon ([2]; D14 (4-22), 2.0 mg/kg SC q24h) was 38.4 °C. The “clinical response (appetite, mental state, weight)” value ([2]; after 2 weeks of treatment, 2.0 mg/kg SC q24h) was “remarkable clinical response with improved appetite and mental state, and weight gain”, the body weight increase ([2]; during and after the treatment (D1-14, 2.0 mg/kg SC q24h)) was 9% and the “hydrothorax (chest X-ray)” value ([2]; since about 7 days after the treatment, 2.0 mg/kg SC q24h) was “completely regressed”. For the same molecule, the “body temperature maintained in the normal range” value ([2]; throughout the treatment (D1-14, 2.0 mg/kg SC q24h), no fever at enrollment) was 38-38.5 °C.

From patent publication US20230241050A1, “APPLICATIONS OF HPK1 KINASE INHIBITOR IN PREVENTING AND/OR TREATING ANIMAL PATHOGEN INFECTION” (ZHUHAI YUFAN BIOTECHNOLOGIES CO., LTD, priority 2020, published 2023)
